The subject of one data set is CLB-70 line. The settings on record: cited from earlier work.
The test system of a further data set is Caco-2 line. The arrangement: method as in PMID 33198146. The settings on record: 48 h of incubation; cited from earlier work.
Another data set has as its system CLBL-1. The settings on record: 72 h of incubation; cited from earlier work.
The next data set relates to T-24 cell line. Also noted: method as in earlier work. The following applies: 48 h of incubation; cited from earlier work.
In data set [1] the test system is NIH/3T3 (mouse embryonic fibroblasts). The data set is described as follows: MTT assay, normal cell line NIH/3T3. The class given is cell-based. The settings on record: NIH3T3, 72 h of exposure. The source says:
(§1) The CLB70 cell line (canine chronic B-cell lymphocytic leukemia) was established at the Department of Pharmacology and Toxicology, Wrocław University of Environmental and Life Sciences. The CLBL-1 cell line (canine B-cell lymphoma) was kindly provided by Dr. Barbara C. Rütgen from the Institute of Immunology, Department of Pathobiology, University of Veterinary Medicine, Vienna. The T-24 (human bladder carcinoma), Caco-2 (human colorectal adenocarcinoma), and NIH/3T3 (mouse embryonic fibroblasts) cell lines were purchased from the American Type Culture Collection (ATCC, Rockville, MD, USA).
(§2) Cell cultures were maintained in their respective growth media, with fetal bovine serum (FBS) concentrations ranging from 10% to 20%, depending on the cell line. Penicillin-streptomycin (PS) and L-glutamine (L-Glu) were consistently added at 1% each to all media. CLB70 cells were cultured in RPMI ADVANCE medium supplemented with 20% FBS, while CLBL-1 cells were maintained in RPMI-1640 medium with 20% FBS. T-24 cells were cultured in McCoy′s 5A medium with 10% FBS, and Caco-2 cells in Eagle′s Minimum Essential Medium (EMEM) with 20% FBS. NIH/3T3 cells were maintained in high-glucose DMEM (DMEM HG) with 10% FBS. All cell cultures were grown in T-75 flasks under a humidified atmosphere at 37 °C and 5% CO2 and passaged every 3 days to maintain optimal cell density (70–80% confluence).
(§3) Stock solutions used in the experiments were freshly prepared for each trial by dissolving the tested compounds in biological-grade DMSO. These stock solutions were then diluted with the culture medium appropriate for each specific cell line to achieve the desired final concentrations, which ranged from 3.125 to 100 µM. The final DMSO concentration in each well was maintained below 1%, a level generally considered non-toxic to cells. The MTT assay was employed to evaluate the antiproliferative and cytotoxic effects of the compounds on cancer cell lines, following a previously described protocol with minor modifications. Cells were seeded in 96-well plates at the following densities: 1.5 × 10^4 cells/mL (NIH/3T3), 2 × 10^4 cells/mL (T-24, Caco-2), and 3 × 10^5 cells/mL (CLB70, CLBL-1). Each plate included control wells with untreated cells and wells with vehicle controls (culture medium specific to each cell line).
(§4) After 72 h of treatment with the tested compounds, 10 µL of 3-(4,5-dimethylthiazol-2-yl)-2,5-diphenyltetrazolium bromide (MTT) solution (5 mg/mL) was added to each well. The cells were subsequently incubated with MTT for an additional 3 h to allow the formation of formazan crystals. Following this, 40 µL of lysis buffer (composed of 46 g sodium dodecyl sulfate, 150 mL dimethylformamide, and 183.2 mL Milli-Q water) was added to each well to dissolve the formazan. After a 24 h incubation at room temperature, the optical density (OD) of the resulting formazan product was measured using a spectrophotometric microplate reader (Spark, Tecan, Männedorf, Switzerland) at 570 nm.
(§5) The results were determined from three independent experiments (four wells each) and presented as mean IC50 value ± SD from at least […], each performed in quadruplicate. IC50 values (the concentration of the compound required to inhibit 50% of cell growth) were calculated from dose–response curves.
A general note: Formazan colour is commonly taken as a measure of viable cells.

Data set [2] deals with CLBL-1 cell line (canine B-cell lymphoma). The data set can be described thus: MTT assay, antiproliferative activity against CLBL-1. The class given is cell-based. The settings on record: for IC50: Canis lupus familiaris, CLBL-1, 72 h of exposure, MTT, mean ± SD; for SI CLBL-1: ratio IC50 NIH/3T3 / IC50 CLBL-1.
Excerpt: as §1, §2, §3, §4, §5

Data set [3] has as its system CaCo-2 (human colorectal adenocarcinoma). The data set is described as follows: MTT assay, antiproliferative activity against CaCo-2. It counts as cell-based. The following applies: for antiproliferative activity against CaCo-2 (in words): 72 h, up to 100 µM; for antiproliferative activity against CaCo-2 (in words) / IC50: MTT; for IC50: Homo sapiens, Caco-2, 72 h of exposure, mean ± SD; for SI CaCo-2: ratio IC50 NIH/3T3 / IC50 CaCo-2.
Excerpt: as §1, §2, §3, §4, §5

Data set [4] deals with T-24 (human bladder carcinoma). The data set can be described thus: MTT assay, antiproliferative activity against T-24. The class given is cell-based. The settings on record: for IC50: Homo sapiens, 72 h of exposure, mean ± SD; for IC50 / antiproliferative activity against T-24 (in words): MTT; for SI T-24: ratio IC50 NIH/3T3 / IC50 T-24; for antiproliferative activity against T-24 (in words): 72 h, up to 100 µM.
Excerpt: as §1, §2, §3, §4, §5

The subject of data set [5] is CLB70 cell line (canine chronic B-cell lymphocytic leukemia). The data set can be described thus: MTT assay, antiproliferative activity against CLB70. The following applies: for IC50: Canis lupus familiaris, CLB70, 72 h of exposure, MTT, mean ± SD; for SI CLB70: ratio IC50 NIH/3T3 / IC50 CLB70. It counts as cell-based.
Excerpt: as §1, §2, §3, §4, §5

Data set [6] is described as follows: Quantitative hemolysis assay on red blood cells. It counts as cell-based. The following applies: human, pH 7.4; 72 h incubation, highest concentration (200 μM). The procedure:
To evaluate the hemolytic activity and cytotoxicity of the tested compounds, a quantitative hemolysis assay was conducted using human red blood cells (RBCs), following the method described by Pruchnik et al., with minor modifications.
RBCs were obtained from healthy donors through the Blood Donation Center in Wrocław. […] The collected RBCs were gently resuspended and washed three times with cold isotonic phosphate-buffered saline (PBS, pH 7.4) to remove plasma and cellular debris.
All tested compounds were dissolved in biological-grade DMSO. A series of working solutions was prepared by diluting the stock solutions to final concentrations of 6.25, 12.50, 25, 50, 100, and 200 μM. […] Control samples contained no tested compounds, while vehicle control samples contained DMSO at the same concentration as the treated samples. Positive control samples (A100%) were prepared by inducing complete hemolysis with Milli-Q water. All experiments were performed in triplicate, with three independent replicates for each condition.
The erythrocyte suspension was adjusted to a final hematocrit of 1.2% in all test tubes, with a total sample volume of 1 mL. Samples were incubated at 37 °C under static conditions for 2, 24, and 72 h to assess both short- and long-term cytotoxic effects.
Following incubation, all samples were centrifuged at 5000 rpm for 3 min at room temperature. The supernatants were carefully transferred to a 96-well plate, and the absorbance of free hemoglobin was measured at 540 nm using a UV-Vis microplate spectrophotometer (EPOCH, BioTek, Santa Clara, CA, USA). The degree of in vitro hemolysis was calculated based on the amount of released hemoglobin relative to that in the completely hemolyzed positive control sample, according to the following formula: H[%]=As/A100%×100%, where H [%] is the percentage of erythrocyte hemolysis, As is absorbance of hemoglobin in supernatant at 540 nm, and A100% refers to the absorbance of hemoglobin in the supernatant following complete hemolysis of the erythrocytes.

Broadly, the IC50 is the concentration that inhibits the measured activity by half.

Values after ≈ are worked out from the molar mass of the structure shown. Where two headings read alike, the source gives them in different places. Where only a bound is given, the exact number is not on record here.

For the compound `COc1cccc2c1C(=O)c1c(O)c3c(c(O)c1C2=O)C[C@@](O)(C(=O)CO)C[C@@H]3O[C@H]1C[C@H](N)[C@H](O)[C@H](C)O1` [doxorubicin], the IC50 is 0.07 µM in the data set on CLB-70 line (48 h of incubation), < 0.09 µM with CLBL-1 and 0.06 µM with T-24 cell line. For the same compound, the “IC50 Caco-2” value in the data set with Caco-2 line is 2.41 µg/mL (≈ 4.43 µM).

In the case of `COc1cc(C=O)ccc1O` [compound 1, Vanillin], the IC50 in data set [1] was > 100 µM; in [2], 72.4 ± 9.4 µM; in data set [3] it was > 100 µM; in data set [4], 48.5 ± 13.2 µM; in data set [5], 72.8 ± 2.3 µM. Further, in data set [2], the “SI CLBL-1” value was >1.4 ^2. For the same compound, in data set [3], the “antiproliferative activity against CaCo-2 (in words)” value is “inactive”. Further, the “SI T-24” value in [4] is >2.1. Besides, the “SI CLB70” value in data set [5] was >1.4.

`COc1cc([C@H]2CC(=O)O[C@@H](C)[C@@H]2Cl)ccc1O` (racemic) [12b, 5-t-Chloro-4-r-(4′-Hydroxy-3′-methoxyphenyl)-6-c-methyltetrahydropyran-2-one]: the IC50 in data set [1] was > 100 µM. For the same compound, in data set [2], inhibition was half-maximal at 85.7 ± 15.7 µM (IC50) and the “SI CLBL-1” value is >1.2. Further, in [3], the “antiproliferative activity against CaCo-2 (in words)” value is reported as “moderate activity”; the midpoint of inhibition, the IC50, lay at 72.5 ± 19.8 µM; the “SI CaCo-2” value is >1.4. Also, in [4], the “antiproliferative activity against T-24 (in words)” value was “inactive” and the IC50 is > 100 µM. In data set [5], the midpoint of inhibition, the IC50, lay at 71.2 ± 11.6 µM and the “SI CLB70” value was >1.4. In data set [6], the hemolysis at 72 h, 200 µM is 10.5%.

As to `COc1cc([C@@H]2CC(=O)O[C@@H]2C(C)Cl)ccc1O` (relative stereo) [12a, Cis-5-(1-Chloroethyl)-4-(4′-hydroxy-3′-methoxyphenyl)dihydrofuran-2-one], the IC50 in data set [1] was > 100 µM. In data set [2], the IC50 is 76.7 ± 11.5 µM and the “SI CLBL-1” value was >1.3. In data set [3], the “antiproliferative activity against CaCo-2 (in words)” value was “moderate activity”; the midpoint of inhibition, the IC50, lay at 88.1 ± 4.4 µM; the “SI CaCo-2” value is listed as >1.1. For the same compound, in [4], the “antiproliferative activity against T-24 (in words)” value was “inactive” and the 50% inhibitory concentration (IC50) is > 100 µM. Further, in data set [5], the midpoint of inhibition, the IC50, lay at 75.2 ± 6.3 µM and the “SI CLB70” value was >1.3.

Take `Cc1ccc(C)c([C@H]2CC(=O)O[C@@H](C)[C@@H]2Br)c1` (single isomer, unassigned): in the data set on CLB-70 line (previously studied analog, reference not given, read-out: IC50 CLB70), the IC50 is 106 µM.

Take `COc1cc([C@@H]2CC(=O)O[C@H]2C(C)I)ccc1O` (relative stereo) [10b, Trans-4-(4′-Hydroxy-3′-methoxyphenyl)-5-(1-iodoethyl)dihydrofuran-2-one]: the IC50 is > 100 µM in data set [1]; 46.3 ± 4.1 µM in [2]; > 100 µM in [3]; 63.4 ± 6.2 µM in [4]; 71.5 ± 7.5 µM in [5]. In addition, the “SI CLBL-1” value in data set [2] is >2.2. In addition, the “antiproliferative activity against T-24 (in words)” value in data set [4] is “demonstrated activity”. Also, the “SI T-24” value in data set [4] is listed as >1.6. Moreover, in data set [5], the “SI CLB70” value was >1.4. Moreover, the hemolysis at 72 h, 200 µM in data set [6] came to 11%.

With `COc1cc([C@@H]2CC(=O)O[C@@H]2C(C)I)ccc1O` (relative stereo) [10a, Cis-4-(4′-Hydroxy-3′-methoxyphenyl)-5-(1-iodoethyl)dihydrofuran-2-one], the half-inhibitory concentration (IC50) in data set [1] is > 100 µM. Besides, in data set [2], half-maximal inhibition (IC50) was put at 73.6 ± 8.8 µM and the “SI CLBL-1” value was >1.4. For the same compound, in data set [3], the IC50 is > 100 µM. Moreover, in data set [4], the “antiproliferative activity against T-24 (in words)” value was “demonstrated activity”, the IC50 was 98.1 ± 10.4 µM and the “SI T-24” value is listed as >1.0. Further, in data set [5], the IC50 worked out at 69.7 ± 13.7 µM and the “SI CLB70” value is listed as >1.4.

For `COc1cc([C@@H]2CC(=O)O[C@@H]2C(C)Br)ccc1O` (relative stereo) [11a, Cis-5-(1-Bromoethyl)-4-(4′-hydroxy-3′-methoxyphenyl)dihydrofuran-2-one], the 50% inhibitory concentration (IC50) in data set [1] is > 100 µM. For the same compound, in data set [2], half-maximal inhibition (IC50) required 63.2 ± 1.6 µM and the “SI CLBL-1” value is given as >1.6. In data set [3], the “antiproliferative activity against CaCo-2 (in words)” value was “moderate activity”, the IC50 worked out at 76.4 ± 10 µM and the “SI CaCo-2” value is >1.3. Besides, in data set [4], the “antiproliferative activity against T-24 (in words)” value is “inactive” and the IC50 is > 100 µM. Also, in data set [5], the midpoint of inhibition, the IC50, lay at 76.2 ± 5.3 µM and the “SI CLB70” value is reported as >1.3. The hemolysis at 72 h, 200 µM in [6] is 10.3%.

Values taken from article PMC12609600, “Novel Halolactones Derived from Vanillin: Design, Synthesis, Structural Characterization, and Evaluation of Antiproliferative and Hemolytic Activities” (Molecules, 2025).
